The source of these data is patent US7659252B2, “Transdermal delivery peptides and method of use thereof” (Novomed Technologies, Inc. (Shanghai), priority 2005, dated 2010).

One test relates to Male Wistar rats. Description: Phage delivery across trimmed abdominal skin, phage titre in tail-vein blood. The format is in vivo, rat. As for the experimental part:
Phage delivery: Male Wistar rats (180 g to 220 g) were housed at a constant temperature (22° C.) and relative humidity (60%) with a fixed 12 hr. light/dark cycle, and free access to food and water. While the animals were anesthetized with Vrethane (5 ml/kg of 20% solution), the hair in an area of approximately 3.0 cm×3.0 cm on the abdomen was carefully trimmed using scissors, with caution not to damage the skin (rats with any visible sign of skin damage were not used). […] One hour after the phage administration blood was withdrawn from the tail vein and immediately assayed for phage titre according to manufacturer's protocol.

Test [1] deals with streptozotocin-induced diabetic rats. The test is described as follows: Transdermal insulin delivery: serum insulin and blood glucose. The format is in vivo, rat. As to the method: Insulin delivery: In particular, male Wistar rats were given intraperitoneal injection of straptozotocin (60 mg/kg; Sigma-Aldrich, St. Louis, […].) to make these rats in diabetic states. Seven to 10 days post injection blood glucose level was measured using One-Touch Ultra Glucometer (LifeScan, Milpitas, Calif.). The straptozocin-induced (SD-induced) diabetic rats with blood glucose level of over 20 mmol/l (normal rats are between 4 and 6 mmol/l) were selected and randomly assigned to different treatment groups, with 6 rats for each group. […] The SLA/PP is a chemical enhancer combination recently identified from high-throughput screening (Karande et al., […], Nature Biotech. 22:192). Moreover, in other transdermal treatment groups, 100 μl saline was given to each rat in that group. For the subcutaneous treatment group, 14 μg of insulin per rat was injected.
Blood was drawn from the rat tail vein at these time points and assayed for blood glucose as described above and serum insulin by radioimmunoassay (Immunotech, Czech).
Blood glucose and serum insulin were measured before and 5 hrs. after the administration as described above.

For test [2], the system named is male Sprague-Dawley rats. Description: Transdermal apomorphine delivery, APO-induced penile erections. The format is in vivo, rat. As to the method:
All behavioral studies were performed from 9:00 am to 4:00 pm at 24±1° C. While the animals were anesthetized with Urethane, the hair in an area of approximately 3.0 cm×3.0 cm in the interscapular region was carefully trimmed using scissors, with caution not to damage the skin (rats with any visible sign of skin damage were not used). Rats were allowed to recover for at least 24 hours before the experiments. One hundred ul cream containing indicated amounts of apomorphine (APO) was placed on the exposed skin and spread evenly using the side of a pipet tip.
Immediately after administration, rats were placed into individual polystyrene cages (32 cm long, 30 cm wide, 30 cm high) for behavioral observation. […] According to methods described by Berendsen and Broekkamp (1987, Eur. J. Pharmacol. 135(3):279-87), a penile erection was present when the following is observed: repeated pelvic thrust immediately followed by an upright position, an emerging engorged penis which the rat licks while eating the ejaculate.

Test [3] deals with male Sprague-Dawley rats. Description: Transdermal PT-141 delivery: penile erections, chasing, mounting. The format is in vivo, rat. The note with it: PT-141 160 μg/kg + peptide 240 μg/kg, cream, 1 h observation. As to the method: All behavioral studies were performed from 9:00 am to 4:00 pm at 24±1° C. While the animals were anesthetized with Urethane, the hair in an area of approximately 3.0 cm×3.0 cm in the interscapular region was carefully trimmed using scissors, with caution not to damage the skin (rats with any visible sign of skin damage were not used). Rats were allowed to recover for at least 24 hours before the experiments. One hundred ul cream containing indicated amounts of PT-141 was placed on the exposed skin and spread evenly using the side of a pipet tip.
Testing rats were divided into four groups with each group contain 6 rats.
Immediately after administration, rats were placed into individual polystyrene cages (32 cm long, 30 cm wide, 30 cm high) for behavioral observation. […] According to methods described by Berendsen and Broekkamp (1987, Eur. J. Pharmacol. 135(3):279-87), a penile erection was present when the following is observed: repeated pelvic thrust immediately followed by an upright position, an emerging engorged penis which the rat licks while eating the ejaculate. In addition, chasing was observed when the male moves forward along the female's side with its mouth licking the female's genital area, while mounting was present when the male's both front feet are off the ground and plant on the female's rump without ejaculation (Naby et al., 1992, Horm. Behav. 26:24; Randy et al., 1995, Nature 378:383).

A further test has as its system hair follicles. The test is described as follows: Microscopy of skin sections: hair follicle penetration. The format is in vivo, rat. As to the method:
In particular, Insulin-FITC (Xi-an Huacheng, Xi-an, China) was dissolved in a small amount of DMF and subsequently diluted in saline for topical administration (final DMF concentration was <0.2%). […] After 2 hours the skin was carefully cleaned by 70% isopropyl alcohol and harvested by dissecting. The isolated skin was fixed with ice-cold 4% paraformaldehyde in 0.1 M phosphate buffer (PH 7.4) overnight. Following several washes with 10 mM phosphate-buffered saline (PBS PH7.4), skin samples were immersed in PBS containing 4.5% sucrose for 24 hours and then dehydrated in 10 mM PBS containing 30% sucrose till deposition. Floating horizontal and vertical sections with a thickness of 20 μm were obtained on a freezing microtome (CM1900 LEICA, Heidelberger, Nussloch, Germany). Cryosections were mounted onto poly-L-lysine-coated glasses, dried at room temperature and enveloped with 10 μl […] Mounting Medium (Vector Laboratories, Burlingame, Calif.). Fluorescence photomicrographs of the sections were obtained with OLYMPUS IX-70 microscope (OLYMPUS, Tokyo, Japan) using a filter set having excitation and emission length at 490-495 nm and 520-530 nm, respectively.

A further test concerns the target T1, ^125I-insulin (Sus scrofa, UniProt P01315).
T1 construct: purchased Beijing Atom HighTech
The test is described as follows: Direct interaction between coated TD-1 and ^125I-insulin. The format is binding, porcine. The note with it: up to 1 mg TD-1 per well. As for the experimental part:
After extensive washing with PBST (PBS+0.1% Tween-20), radioactivity was measured with Gamma Radioimmunoassay Counter.

The target of a further test is T2, insulin (Sus scrofa, UniProt P01315).
T2 construct: pharmaceutical-grade (>98%, 30 IU/mg) porcine insulin; purchased Xuzhou Pharmaceuticals
Description: ELISA direct interaction between TD-1 and insulin (incl. reverse scheme). The format is binding, porcine. As to the method:
Insulin (100 μg) and a guinea pig anti-porcine insulin antibody (Atom High-Tech, used at 1:1000 dilution), in 100 μl of PBS, was added to each well and incubated for 2 hrs. at 37° C. After washing 6× with PBST, the plate was incubated with 1:2000 dilution of anti-guinea pig IgG conjugated with HRP (Chang-Dao Biotechnology Co. Ltd., Shanghai, China) for 1 hr. at 37° C. The plate was washed 6× with PBST, followed by the addition of 100 μl/well of TMB substrate. After incubation at room temperature for 10 mins and additional of stop solution (1 M H2SO4), absorbance was read at 450/630 nm in an ELISA reader. As a positive control, 1 ng to 1 μg of insulin was coated directly on the plates and was detected by the same procedure as described above. In areverse interaction scheme, ELISA plate wells were coated with 1 μg to 1 mg of insulin, blocked with BSA, incubated with TD-1-AngII fusion peptide (100 μg per well), incubated with rabbit polyclonal antibody against human angiotensin II (Atom High-Tech, used at 1:1000) and 1:2000 of anti-rabbit IgG conjugated with HRP (Zhong Shan Golden Bridge Biotechnology, Beijing, China), and finally assayed by TMB color reactionm using the same protocol as described above. The control for this reverse scheme experiment used 1 μg of TD-1-AngII coated directly to the wells.
Background: ELISA stands for enzyme-linked immunosorbent assay.

Setting [4] is: peptide topically co-administered with PH-1.
Where [5] appears, read: 500 μg TD-1 + 70 μg porcine insulin, topical.
[6] abbreviates: co-administered with 70 μg insulin, 5 hours.
Setting [7] is: insulin-FITC 10 μg + TD-1, time course.

T2 sequence (P01315 25-54 limits assumed): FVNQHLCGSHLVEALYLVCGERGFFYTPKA
T2 sequence (P01315 88-108 limits assumed): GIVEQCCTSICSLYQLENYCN
T1 sequence (P01315 25-54 limits assumed): as the sequence (P01315 25-54 limits assumed) above

Regarding ACSSSPSKHCG [TD-1], in the test with Male Wistar rats (co-administered with control phage, data not shown), the “tested rats in which enhanced transdermal penetration of a control phage was observed” value was 20%. Further, in the test with Male Wistar rats (setting [4]), the “amount that completely abolished the transdermal activity of PH-1” value was “over 5 μg” and the “effect on transdermal activity of phages carrying the TD-2 peptide (PH-1)” value is recorded as “dose-dependent manner”. Also, in test [1] (setting [5]), the “time at which decrease of blood glucose was seen” value was determined as 2 h and the “time of lowest blood glucose level” value amounted to 8 h. Also, the “lowest blood glucose level” value in test [1] (500 μg TD-1 + 70 μg porcine insulin, topical, at 8 hours) was < 25 % of the initial blood glucose level. In test [1] (500 μg TD-1 alone, without insulin, topical), the “effect on blood glucose or serum insulin level” value was “no effect”. Also, the “Blood Glucose Mean” value in test [1] (5 hr value as % of the 0 hr value, 500 μg peptide + 70 μg insulin topical) was 38.68%. Moreover, in test [1] (setting [6]), the “TD-1 amount at which transdermal-enhancing effect reached maximum” value was above 500 µg; the “TD-1 amount without significant insulin-elevating and glucose-lowering effect” value was below 20 µg. Further, the “time at which most PEs occurred” value in the test with male Sprague-Dawley rats [2] (APO 0.8 mg/kg + TD-1 2.0 mg/kg) was “during the second hour”. For the same sequence, the “number of PEs” value with male Sprague-Dawley rats [2] (TD-1 0.4 mg/kg + APO 0.8 mg/kg) is given as “did not significantly increase”. Further, the “transdermal-enhancing effect (number of PEs)” value in the test with male Sprague-Dawley rats [2] (TD-1 0.8, 2.0 and 3.2 mg/kg + APO 0.8 mg/kg) is recorded as “reached maximum”. The “effect on APO transdermal delivery (APO-induced penile erections)” value in the test with male Sprague-Dawley rats [2] (peptide 2.0 mg/kg + APO 0.8 mg/kg, cream, 2 h observation) is “facilitates transdermal APO delivery”. In addition, the “numbers of PEs, chasing and mounting” value in the test with male Sprague-Dawley rats [3] was “significantly increased”. In addition, the “follicular penetration of insulin-FITC” value in the test with hair follicles (10 μg insulin-FITC co-administered with enhancer, 2 h, abdominal skin) is reported as “penetration of insulin-FITC deep into hair follicles”. The “relation of waiting period to extent of follicular penetration of insulin-FITC” value in the test with hair follicles (TD-1 5 min, washed, waiting 0-60 min before insulin-FITC) was “inversely proportional”. In the test on hair follicles (setting [7]), the “duration of follicular penetration of insulin-FITC” value was “at least 24 hours”, the “earliest time follicular penetration of insulin-FITC detectable” value worked out at 30 min and the “time of maximum follicular penetration of insulin-FITC” value came out at 2 h. The “^125I-insulin bound to wells precoated with TD-1” value at ^125I-insulin is “No significant radioactivity above the background level”. The “direct binding to insulin (conclusion of binding assays)” value on insulin is given as “does not bind insulin directly”. The “insulin bound to precoated TD-1” value at insulin (wells coated with increasing amounts of TD-1, 100 μg insulin) is listed as “No significant amount of insulin was found to bind”.
